Laboratory results taken from US9682141B2, “Combination of kinase inhibitors and uses thereof” (INTELLIKINE LLC, priority 2011, dated 2017).

Experiments:
Type in all cases: biochemical
PI3K α = PI3K α (Homo sapiens (Human), UniProt P42336); experiment: PI 3-Kinase (human) HTRF assay, p110α/p85α
PI3K δ = PI3K δ (Homo sapiens (Human), UniProt O00329); experiment: PI 3-Kinase (human) HTRF assay, p110δ/p85α
PI3K γ = PI3K γ (Homo sapiens (Human), UniProt P48736); experiment: PI 3-Kinase (human) HTRF assay, p110γ; conditions: read-out: PI3K γ IC50
Method: An exemplary system is PI 3-Kinase (human) HTRF™ Assay from Upstate. […] Briefly, the assay is a time resolved FRET assay that indirectly measures PIP3 product formed by the activity of a PI3-K. The kinase reaction is performed in a microtitre plate (e.g., a 384 well microtitre plate). The total reaction volume is approximately 20 ul per well. In the first step, each well receives 2 ul of test compound in 20% dimethylsulphoxide resulting in a 2% DMSO final concentration. Next, approximately 14.5 ul of a kinase/PIP2 mixture (diluted in 1× reaction buffer) is added per well for a final concentration of 0.25-0.3 ug/ml kinase and 10 μM PIP2. The plate is sealed and incubated for 15 minutes at room temperature. To start the reaction, 3.5 ul of ATP (diluted in 1× reaction buffer) is added per well for a final concentration of 10 μM ATP. The plate is sealed and incubated for 1 hour at room temperature. The reaction is stopped by adding 5 ul of Stop Solution per well and then 5 ul of Detection Mix is added per well. The plate is sealed, incubated for 1 hour at room temperature, and then read on an appropriate plate reader. Data is analyzed and IC50s are generated using GraphPad Prism 5. For PI3K α, β, δ, and γ, the nM concentration of inhibitor to reach IC50 is provided.

PI3K β = PI3K β (Homo sapiens (Human), UniProt P42338); experiment: PI 3-Kinase (human) HTRF assay, p110β/p85α
PI3K β, sequence (P42338 whole entry): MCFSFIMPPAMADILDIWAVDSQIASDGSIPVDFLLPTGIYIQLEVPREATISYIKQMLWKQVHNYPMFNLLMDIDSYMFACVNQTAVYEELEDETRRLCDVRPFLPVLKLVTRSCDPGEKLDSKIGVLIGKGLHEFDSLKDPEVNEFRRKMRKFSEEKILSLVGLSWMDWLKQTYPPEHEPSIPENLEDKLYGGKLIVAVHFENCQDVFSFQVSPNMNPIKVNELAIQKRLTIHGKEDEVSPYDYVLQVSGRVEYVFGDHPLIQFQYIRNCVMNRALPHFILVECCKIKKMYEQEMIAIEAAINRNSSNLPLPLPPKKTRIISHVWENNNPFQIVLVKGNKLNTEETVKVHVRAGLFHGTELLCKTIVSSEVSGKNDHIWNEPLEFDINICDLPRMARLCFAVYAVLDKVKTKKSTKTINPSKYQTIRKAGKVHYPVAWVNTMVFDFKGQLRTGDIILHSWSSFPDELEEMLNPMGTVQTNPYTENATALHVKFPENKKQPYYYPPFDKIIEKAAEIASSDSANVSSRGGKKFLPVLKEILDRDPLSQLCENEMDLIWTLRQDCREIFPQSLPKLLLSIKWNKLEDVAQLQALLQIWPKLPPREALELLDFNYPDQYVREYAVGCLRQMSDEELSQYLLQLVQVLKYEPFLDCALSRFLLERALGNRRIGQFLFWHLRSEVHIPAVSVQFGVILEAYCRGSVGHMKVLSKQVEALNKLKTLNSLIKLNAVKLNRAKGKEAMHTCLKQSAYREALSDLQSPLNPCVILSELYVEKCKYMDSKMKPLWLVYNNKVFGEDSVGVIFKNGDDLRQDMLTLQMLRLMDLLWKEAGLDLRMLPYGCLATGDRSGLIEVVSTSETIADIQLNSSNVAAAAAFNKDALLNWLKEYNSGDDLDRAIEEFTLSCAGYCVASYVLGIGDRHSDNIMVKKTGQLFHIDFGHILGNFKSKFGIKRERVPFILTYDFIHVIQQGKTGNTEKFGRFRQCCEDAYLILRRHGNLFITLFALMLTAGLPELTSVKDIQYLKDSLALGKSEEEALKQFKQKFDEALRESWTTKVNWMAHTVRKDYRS
PI3K β, sequence (P27986 whole entry partner): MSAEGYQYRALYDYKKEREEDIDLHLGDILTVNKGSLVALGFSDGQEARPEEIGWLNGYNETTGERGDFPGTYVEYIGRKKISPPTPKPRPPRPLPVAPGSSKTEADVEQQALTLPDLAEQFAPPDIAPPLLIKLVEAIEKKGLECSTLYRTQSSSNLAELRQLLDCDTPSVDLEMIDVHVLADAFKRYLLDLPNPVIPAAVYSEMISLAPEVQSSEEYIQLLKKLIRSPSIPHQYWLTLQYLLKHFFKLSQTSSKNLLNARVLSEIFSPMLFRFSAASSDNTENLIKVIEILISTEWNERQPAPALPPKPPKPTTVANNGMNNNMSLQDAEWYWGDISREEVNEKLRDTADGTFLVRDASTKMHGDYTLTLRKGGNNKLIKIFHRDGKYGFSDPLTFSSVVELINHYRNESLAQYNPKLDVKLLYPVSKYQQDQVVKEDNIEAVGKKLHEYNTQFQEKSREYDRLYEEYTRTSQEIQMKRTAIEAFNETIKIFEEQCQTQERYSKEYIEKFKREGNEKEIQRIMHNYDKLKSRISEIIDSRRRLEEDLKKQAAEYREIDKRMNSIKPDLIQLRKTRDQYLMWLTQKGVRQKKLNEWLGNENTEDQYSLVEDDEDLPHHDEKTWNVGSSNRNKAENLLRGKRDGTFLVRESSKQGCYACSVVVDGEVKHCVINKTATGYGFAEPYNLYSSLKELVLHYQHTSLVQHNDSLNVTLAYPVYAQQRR

PI3K δ, sequence (O00329 whole entry): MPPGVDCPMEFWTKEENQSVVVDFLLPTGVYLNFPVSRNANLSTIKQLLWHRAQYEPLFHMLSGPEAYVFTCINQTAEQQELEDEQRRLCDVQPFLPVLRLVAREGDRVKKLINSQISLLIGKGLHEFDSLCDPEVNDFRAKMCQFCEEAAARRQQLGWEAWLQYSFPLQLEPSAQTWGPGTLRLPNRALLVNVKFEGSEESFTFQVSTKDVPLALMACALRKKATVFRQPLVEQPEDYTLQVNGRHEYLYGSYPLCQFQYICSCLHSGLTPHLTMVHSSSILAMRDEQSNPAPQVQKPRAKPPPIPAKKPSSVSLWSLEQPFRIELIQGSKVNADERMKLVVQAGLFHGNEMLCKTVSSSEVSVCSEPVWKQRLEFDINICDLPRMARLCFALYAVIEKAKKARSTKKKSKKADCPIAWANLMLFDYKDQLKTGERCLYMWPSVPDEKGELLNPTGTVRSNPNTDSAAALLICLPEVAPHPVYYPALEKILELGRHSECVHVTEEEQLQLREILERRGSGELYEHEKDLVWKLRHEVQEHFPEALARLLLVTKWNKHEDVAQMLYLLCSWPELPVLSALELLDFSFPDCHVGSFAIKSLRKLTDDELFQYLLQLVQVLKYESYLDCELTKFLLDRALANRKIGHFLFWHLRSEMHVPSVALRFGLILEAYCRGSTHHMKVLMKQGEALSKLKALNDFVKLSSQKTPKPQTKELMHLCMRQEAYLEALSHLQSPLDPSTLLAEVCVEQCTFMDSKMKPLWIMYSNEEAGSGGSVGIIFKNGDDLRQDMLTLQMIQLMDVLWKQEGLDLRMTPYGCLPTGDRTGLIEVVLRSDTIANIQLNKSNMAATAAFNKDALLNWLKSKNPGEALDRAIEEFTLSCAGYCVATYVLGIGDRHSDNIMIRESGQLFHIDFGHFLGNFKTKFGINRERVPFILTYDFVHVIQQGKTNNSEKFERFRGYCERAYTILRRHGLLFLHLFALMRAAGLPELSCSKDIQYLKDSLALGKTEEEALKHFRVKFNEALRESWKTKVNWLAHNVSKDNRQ
PI3K δ, sequence (P27986 whole entry partner): as the sequence (P27986 whole entry partner) above
PI3K γ, sequence (P48736 whole entry): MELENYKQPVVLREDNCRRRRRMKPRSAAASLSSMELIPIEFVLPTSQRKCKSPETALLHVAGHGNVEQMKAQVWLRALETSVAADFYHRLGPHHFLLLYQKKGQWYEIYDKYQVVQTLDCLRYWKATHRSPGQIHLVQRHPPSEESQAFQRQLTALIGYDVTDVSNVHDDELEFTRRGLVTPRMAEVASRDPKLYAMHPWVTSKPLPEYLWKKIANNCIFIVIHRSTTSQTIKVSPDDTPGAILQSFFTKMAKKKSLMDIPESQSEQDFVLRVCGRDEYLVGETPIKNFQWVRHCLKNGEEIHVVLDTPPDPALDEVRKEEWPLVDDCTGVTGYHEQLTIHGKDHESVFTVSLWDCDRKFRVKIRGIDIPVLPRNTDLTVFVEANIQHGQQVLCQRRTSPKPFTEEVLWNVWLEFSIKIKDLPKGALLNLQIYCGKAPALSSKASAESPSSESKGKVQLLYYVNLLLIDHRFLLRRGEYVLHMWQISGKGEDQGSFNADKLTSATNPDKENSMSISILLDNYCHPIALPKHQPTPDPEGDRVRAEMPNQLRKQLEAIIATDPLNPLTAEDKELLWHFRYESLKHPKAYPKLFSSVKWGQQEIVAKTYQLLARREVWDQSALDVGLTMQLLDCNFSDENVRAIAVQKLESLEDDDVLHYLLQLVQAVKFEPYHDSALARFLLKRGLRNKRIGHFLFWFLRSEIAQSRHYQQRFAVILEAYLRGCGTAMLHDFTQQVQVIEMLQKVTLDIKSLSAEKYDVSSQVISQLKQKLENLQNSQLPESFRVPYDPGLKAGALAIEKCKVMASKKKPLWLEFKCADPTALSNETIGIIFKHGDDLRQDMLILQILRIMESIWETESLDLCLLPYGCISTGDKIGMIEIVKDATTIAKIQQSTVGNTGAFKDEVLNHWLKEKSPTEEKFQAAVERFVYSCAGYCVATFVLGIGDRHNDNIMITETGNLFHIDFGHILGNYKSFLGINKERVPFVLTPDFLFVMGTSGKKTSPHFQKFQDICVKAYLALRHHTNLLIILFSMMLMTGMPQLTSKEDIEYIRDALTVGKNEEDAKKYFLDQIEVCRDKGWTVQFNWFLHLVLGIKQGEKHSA
PI3K α, sequence (P42336 whole entry): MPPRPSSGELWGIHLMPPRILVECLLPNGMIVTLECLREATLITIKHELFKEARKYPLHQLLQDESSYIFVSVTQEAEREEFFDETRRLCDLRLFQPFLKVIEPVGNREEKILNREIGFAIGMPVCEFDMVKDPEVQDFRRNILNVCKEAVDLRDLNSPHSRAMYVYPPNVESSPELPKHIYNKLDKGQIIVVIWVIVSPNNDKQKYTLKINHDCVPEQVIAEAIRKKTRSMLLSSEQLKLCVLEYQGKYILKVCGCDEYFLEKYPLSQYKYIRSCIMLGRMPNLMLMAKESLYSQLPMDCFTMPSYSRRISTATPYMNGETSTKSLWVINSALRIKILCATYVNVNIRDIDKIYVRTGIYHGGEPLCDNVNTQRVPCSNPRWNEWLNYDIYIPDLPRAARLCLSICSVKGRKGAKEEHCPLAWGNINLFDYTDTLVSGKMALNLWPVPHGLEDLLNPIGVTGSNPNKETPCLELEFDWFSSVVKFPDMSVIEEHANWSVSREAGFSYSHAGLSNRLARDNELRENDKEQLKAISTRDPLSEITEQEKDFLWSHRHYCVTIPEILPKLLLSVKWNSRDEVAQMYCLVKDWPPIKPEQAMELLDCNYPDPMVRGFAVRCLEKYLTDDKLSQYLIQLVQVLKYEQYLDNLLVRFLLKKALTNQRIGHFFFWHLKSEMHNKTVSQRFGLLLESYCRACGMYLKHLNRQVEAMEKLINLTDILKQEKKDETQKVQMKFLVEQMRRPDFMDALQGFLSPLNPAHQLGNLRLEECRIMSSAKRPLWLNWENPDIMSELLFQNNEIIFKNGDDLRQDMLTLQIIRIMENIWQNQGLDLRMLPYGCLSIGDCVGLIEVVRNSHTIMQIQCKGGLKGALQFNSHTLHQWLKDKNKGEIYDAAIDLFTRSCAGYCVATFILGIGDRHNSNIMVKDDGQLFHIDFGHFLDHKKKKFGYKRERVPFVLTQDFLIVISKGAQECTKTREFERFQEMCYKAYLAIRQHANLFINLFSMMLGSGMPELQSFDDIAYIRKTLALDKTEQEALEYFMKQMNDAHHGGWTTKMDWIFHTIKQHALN
PI3K α, sequence (P27986 whole entry partner): as the sequence (P27986 whole entry partner) above

SMILES	IC50 (PI3K α)	IC50 (PI3K δ)	IC50 (PI3K γ)	IC50 (PI3K β)
Nc1nc2cc(-c3ccc4ncc(C(=O)NC5CCOCC5)n4c3)ccc2o1	< 100 nM	< 100 nM	< 100 nM	< 10000 nM
CC(C)N1CCN(c2cnc3ccc(-c4ccc5oc(N)nc5c4)cc3n2)CC1	< 100 nM	< 1000 nM	< 100 nM	< 100 nM
CC(=O)N1CCN(c2cnc3ccc(-c4ccc5oc(N)nc5c4)cc3n2)CC1	< 100 nM	< 100 nM	< 100 nM	< 100 nM
CS(=O)(=O)N1CCN(c2cnc3ccc(-c4ccc5oc(N)nc5c4)cc3n2)CC1	< 100 nM	< 1000 nM	< 100 nM	< 1000 nM
CS(=O)(=O)N1CCC(Nc2ncnc3ccc(-c4ccc5oc(N)nc5c4)cc23)CC1	< 100 nM	< 100 nM	< 100 nM	< 1000 nM
Nc1nc2cc(-c3ccc4ncc(N5CCNCC5)nc4c3)ccc2o1	< 100 nM	< 10000 nM	< 1000 nM	< 100 nM
Nc1nc2cc(-c3ccc4ncnc(NC5CCN(C(=O)C6CC6)CC5)c4c3)ccc2o1	< 100 nM	< 100 nM	< 100 nM	< 10000 nM
CS(=O)(=O)CCN1CCN(c2cnc3ccc(-c4ccc5oc(N)nc5c4)cc3n2)CC1	< 100 nM	< 10000 nM	< 1000 nM	< 1000 nM
Cc1nc2ccc(-c3ccc4oc(N)nc4c3)cn2c1C(=O)N1CCN(C)CC1	> 10000 nM	> 10000 nM	> 10000 nM	> 10000 nM
Cc1nc2ccc(-c3ccc4oc(N)nc4c3)cn2c1C(=O)N1CCOCC1	> 10000 nM	> 10000 nM	> 10000 nM	> 10000 nM
Cn1cc(-c2cnc3ccc(-c4ccc5oc(N)nc5c4)cc3n2)cn1	< 100 nM	< 10000 nM	< 100 nM	< 1000 nM
CS(=O)(=O)N1CCC(Nc2cnc3ccc(-c4ccc5oc(N)nc5c4)cc3n2)CC1	< 100 nM	< 100 nM	< 100 nM	< 10000 nM
Nc1nc2cc(-c3ccc4ncc(NC5CCOCC5)nc4c3)ccc2o1	< 100 nM	< 1000 nM	< 100 nM	< 10000 nM
Nc1nc2cc(-c3ccc4ncc(C(=O)N5CCOCC5)cc4c3)ccc2o1	< 10000 nM	> 10000 nM	> 10000 nM	> 10000 nM
Nc1nc2cc(-c3ccc4ncc(N5CCS(=O)(=O)CC5)nc4c3)ccc2o1	< 100 nM	> 10000 nM	< 100 nM	> 10000 nM
Nc1nc2cc(-c3ccc4ncc(N5CCC(O)CC5)nc4c3)ccc2o1	< 100 nM	< 1000 nM	< 1000 nM	< 10000 nM
Nc1nc2cc(-c3ccc4ncc(N5CCN(CCO)CC5)nc4c3)ccc2o1	< 100 nM	< 10000 nM	< 1000 nM	< 100 nM
CC(C)N1CCC(Nc2ncnc3ccc(-c4ccc5oc(N)nc5c4)cc23)CC1	< 100 nM	< 1000 nM	< 10000 nM	< 10000 nM
CC(C)(C#N)c1ccc(Nc2ncnc3ccc(-c4ccc5oc(N)nc5c4)cc23)cc1	< 100 nM	< 1000 nM	< 100 nM	< 1000 nM
CN(C)CC(=O)N1CCC(Nc2ncnc3ccc(-c4ccc5oc(N)nc5c4)cc23)CC1	< 100 nM	< 1000 nM	< 1000 nM	< 1000 nM
CN1CCN(C(=O)c2cnc3ccc(-c4ccc5oc(N)nc5c4)nn23)CC1	< 10000 nM	> 10000 nM	< 10000 nM	> 10000 nM
Nc1nc2cc(-c3ccc4ncc(C(=O)N5CCOCC5)n4n3)ccc2o1	< 1000 nM	> 10000 nM	< 1000 nM	< 10000 nM
C[C@@H]1CN(C(=O)c2cnc3ccc(-c4ccc5oc(N)nc5c4)cn23)C[C@H](C)O1	< 10000 nM	> 10000 nM	< 10000 nM	> 10000 nM
Nc1nc2cc(-c3ccc4ncc(C(=O)N5CCS(=O)(=O)CC5)n4c3)ccc2o1	< 1000 nM	> 10000 nM	< 10000 nM	> 10000 nM
Nc1nc2cc(-c3ccc4ncc(-c5cnn(CCO)c5)nc4c3)ccc2o1	< 100 nM	> 10000 nM	< 100 nM	< 10000 nM
Nc1nc2cc(-c3ccc4ncc(C(=O)N5CCNCC5)n4c3)ccc2o1	< 100 nM	> 10000 nM	> 10000 nM	< 10000 nM
CS(=O)(=O)N1CCN(C(=O)c2cnc3ccc(-c4ccc5oc(N)nc5c4)cn23)CC1	< 100 nM	< 10000 nM	< 1000 nM	> 10000 nM
CC(=O)N1CCN(C(=O)c2cnc3ccc(-c4ccc5oc(N)nc5c4)cn23)CC1	< 100 nM	> 10000 nM	< 1000 nM	> 10000 nM
